Consider 18 molecules from US11279699B2 (Suzhou Longbiotech Pharmaceuticals Co., Ltd., priority 2016, dated 2022).

What all share (assay type): biochemical
The target in one experiment is JAK3 (Homo sapiens (Human), UniProt P52333). Briefly: Inhibition of JAK, luminescence kinase assay (ADP-Glo), JAK3. Conditions: purified recombinant JAK3. As to the method:
(§1) The study of the effect of compounds on the activity of purified recombinant JAK was performed by studying the inhibitory activity of the compounds on JAK from the enzymatic level. The experimental principle is to use a luminescence kinase assay to detect the ADP content produced by the reaction of JAK with the substrate Poly (4:1 Glu, Tyr) peptide: after ADP is converted to ATP, ATP can act as a substrate for the Ultra-Glo luciferase catalytic reaction, producing an optical signal. The luminescence signal is positively correlated with the amount of ADP and kinase activity. Therefore, the inhibitory effect of the compounds on the recombinant JAK was determined by observing the luminescence signal produced by the reaction of JAK and the substrate, and was expressed by IC50.
(§2) Experimental method: 10 different concentrations of compounds were incubated with JAK1, JAK2 and JAK3, respectively, for 60 minutes at 37° C. The substrate and ATP were then added, mixed, and reacted at 37° C. for 50 minutes. 25 μl of ADP-Glo™ was added and mixed for 2 minutes. The reaction was carried out for 50 minutes at room temperature. Further, 50 μl of the detection reagent was added and mixed for 2 minutes, and incubated at room temperature for 50 minutes, and detected by a chemiluminometer.

The target of the next experiment is JAK2 (Homo sapiens (Human), UniProt O60674). Briefly: Inhibition of JAK, luminescence kinase assay (ADP-Glo), JAK2. Conditions: purified recombinant JAK2. How it is done: as §1, §2
Sequence of JAK2 (O60674 whole entry): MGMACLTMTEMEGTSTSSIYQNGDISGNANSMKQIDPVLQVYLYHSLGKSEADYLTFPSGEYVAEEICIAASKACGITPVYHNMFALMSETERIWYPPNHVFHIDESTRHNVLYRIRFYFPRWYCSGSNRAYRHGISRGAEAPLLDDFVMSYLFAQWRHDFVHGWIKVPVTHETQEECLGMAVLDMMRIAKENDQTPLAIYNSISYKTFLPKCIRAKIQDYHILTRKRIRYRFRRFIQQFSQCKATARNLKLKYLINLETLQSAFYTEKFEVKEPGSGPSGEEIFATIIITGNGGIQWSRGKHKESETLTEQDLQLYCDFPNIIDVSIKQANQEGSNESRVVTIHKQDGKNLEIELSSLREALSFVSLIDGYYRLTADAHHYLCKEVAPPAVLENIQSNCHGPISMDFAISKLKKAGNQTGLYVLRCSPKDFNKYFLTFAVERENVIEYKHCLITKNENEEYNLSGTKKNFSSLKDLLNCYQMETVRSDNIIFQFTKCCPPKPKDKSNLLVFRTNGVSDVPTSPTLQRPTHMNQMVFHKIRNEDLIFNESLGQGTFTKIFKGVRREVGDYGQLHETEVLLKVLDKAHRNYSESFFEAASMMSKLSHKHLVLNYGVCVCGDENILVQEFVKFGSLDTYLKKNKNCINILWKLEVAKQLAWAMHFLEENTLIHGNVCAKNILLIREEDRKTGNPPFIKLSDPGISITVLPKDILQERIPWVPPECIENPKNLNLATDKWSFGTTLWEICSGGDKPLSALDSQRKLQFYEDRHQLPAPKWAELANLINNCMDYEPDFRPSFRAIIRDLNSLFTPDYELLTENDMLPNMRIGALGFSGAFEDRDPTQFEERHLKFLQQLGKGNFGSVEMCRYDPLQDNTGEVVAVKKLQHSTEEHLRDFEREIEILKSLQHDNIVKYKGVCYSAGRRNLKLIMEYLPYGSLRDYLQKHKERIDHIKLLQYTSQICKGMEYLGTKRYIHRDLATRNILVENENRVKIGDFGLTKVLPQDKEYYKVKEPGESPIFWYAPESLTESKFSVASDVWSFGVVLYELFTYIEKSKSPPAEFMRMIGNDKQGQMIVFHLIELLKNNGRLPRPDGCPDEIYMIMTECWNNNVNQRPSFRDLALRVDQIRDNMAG
Background: ADP-Glo first removes unused ATP, then detects ADP through luciferase.

Another experiment addresses JAK1 (Homo sapiens (Human), UniProt P23458). Briefly: Inhibition of JAK, luminescence kinase assay (ADP-Glo), JAK1. The note with it: for IC50: purified recombinant JAK1. As to the method: as §1, §2
Setting [1] is: Table 2, same experimental conditions.

Sequence of JAK3 (P52333 whole entry): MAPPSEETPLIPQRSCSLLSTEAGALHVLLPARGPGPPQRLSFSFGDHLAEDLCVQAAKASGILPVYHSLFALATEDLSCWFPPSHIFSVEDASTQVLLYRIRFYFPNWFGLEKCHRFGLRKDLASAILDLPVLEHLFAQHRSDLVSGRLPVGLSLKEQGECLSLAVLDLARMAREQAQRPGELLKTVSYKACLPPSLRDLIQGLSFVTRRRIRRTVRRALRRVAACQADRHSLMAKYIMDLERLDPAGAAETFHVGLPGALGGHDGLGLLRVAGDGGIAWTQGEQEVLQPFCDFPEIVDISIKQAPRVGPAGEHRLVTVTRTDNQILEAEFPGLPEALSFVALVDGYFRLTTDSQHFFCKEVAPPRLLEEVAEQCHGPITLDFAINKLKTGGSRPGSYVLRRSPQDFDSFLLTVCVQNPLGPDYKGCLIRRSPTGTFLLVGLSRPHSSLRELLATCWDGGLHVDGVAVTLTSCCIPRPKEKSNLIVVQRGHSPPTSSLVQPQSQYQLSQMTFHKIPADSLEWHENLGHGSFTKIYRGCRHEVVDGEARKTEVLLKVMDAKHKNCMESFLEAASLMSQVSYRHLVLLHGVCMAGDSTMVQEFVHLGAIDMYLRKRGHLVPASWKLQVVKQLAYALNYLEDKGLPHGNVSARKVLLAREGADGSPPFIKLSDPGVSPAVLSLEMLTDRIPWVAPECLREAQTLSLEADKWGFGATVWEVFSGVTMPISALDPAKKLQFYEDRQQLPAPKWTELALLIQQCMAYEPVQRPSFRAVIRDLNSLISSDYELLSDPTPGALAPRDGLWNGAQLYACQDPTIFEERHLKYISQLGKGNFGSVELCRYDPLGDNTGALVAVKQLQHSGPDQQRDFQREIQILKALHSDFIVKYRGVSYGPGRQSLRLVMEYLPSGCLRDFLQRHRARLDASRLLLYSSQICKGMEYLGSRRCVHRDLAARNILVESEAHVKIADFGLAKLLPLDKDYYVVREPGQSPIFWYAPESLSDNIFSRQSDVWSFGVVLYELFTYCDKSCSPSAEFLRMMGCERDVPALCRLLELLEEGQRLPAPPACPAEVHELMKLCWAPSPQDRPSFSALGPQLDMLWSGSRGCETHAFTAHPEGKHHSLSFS
Sequence of JAK1 (P23458 whole entry): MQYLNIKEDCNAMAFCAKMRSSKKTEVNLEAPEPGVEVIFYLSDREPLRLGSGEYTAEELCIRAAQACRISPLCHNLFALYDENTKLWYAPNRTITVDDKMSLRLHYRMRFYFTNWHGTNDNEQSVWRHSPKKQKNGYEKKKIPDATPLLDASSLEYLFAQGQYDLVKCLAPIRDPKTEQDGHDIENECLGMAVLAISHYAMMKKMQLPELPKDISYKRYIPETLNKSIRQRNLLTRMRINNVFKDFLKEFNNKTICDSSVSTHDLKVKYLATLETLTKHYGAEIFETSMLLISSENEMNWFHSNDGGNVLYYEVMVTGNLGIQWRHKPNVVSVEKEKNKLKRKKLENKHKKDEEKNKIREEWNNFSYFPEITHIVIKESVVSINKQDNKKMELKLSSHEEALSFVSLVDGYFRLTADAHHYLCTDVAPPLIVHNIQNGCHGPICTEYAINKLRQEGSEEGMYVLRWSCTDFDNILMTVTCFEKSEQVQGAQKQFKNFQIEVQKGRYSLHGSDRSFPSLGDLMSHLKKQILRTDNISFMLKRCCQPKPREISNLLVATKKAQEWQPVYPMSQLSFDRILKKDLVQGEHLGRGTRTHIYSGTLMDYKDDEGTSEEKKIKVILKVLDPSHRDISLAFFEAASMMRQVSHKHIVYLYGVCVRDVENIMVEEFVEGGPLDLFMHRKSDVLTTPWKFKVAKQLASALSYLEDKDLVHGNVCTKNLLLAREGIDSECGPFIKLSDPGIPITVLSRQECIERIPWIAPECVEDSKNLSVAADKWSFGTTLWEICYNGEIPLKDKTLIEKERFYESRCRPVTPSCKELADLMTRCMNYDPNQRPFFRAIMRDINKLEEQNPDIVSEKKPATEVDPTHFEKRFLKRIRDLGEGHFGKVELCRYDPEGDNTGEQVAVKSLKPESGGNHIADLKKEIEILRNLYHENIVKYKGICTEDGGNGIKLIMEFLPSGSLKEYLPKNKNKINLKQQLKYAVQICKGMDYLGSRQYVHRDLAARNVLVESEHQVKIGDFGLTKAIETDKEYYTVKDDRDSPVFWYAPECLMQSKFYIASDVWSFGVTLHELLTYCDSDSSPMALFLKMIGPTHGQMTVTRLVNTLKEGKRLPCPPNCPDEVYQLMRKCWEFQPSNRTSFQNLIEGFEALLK

In general, IC50 refers to the concentration that inhibits the measured activity by half. Consider `CCS(=O)(=O)C1CN(Cc2ccc(-c3cccn4nc(NC(=O)C5CC5)nc34)cc2)C1` [Example 11, N-(8-(4-((3-(ethylsulfonyl)azetidin-1-yl)methyl)phenyl)-[1,2,4]triazolo[1,5-a]pyridin-2-yl]cyclopropanecarboxamide], for which the concentration for half-maximal inhibition (IC50) at JAK3 (Table 1) is over 50 nM; on JAK2 (Table 1), over 50 nM; on JAK1 (Table 1), 20 to 50 nM.

Regarding `CC(C)C(=O)Nc1nc2cccc(-c3ccc(CN4CC(S(=O)(=O)C5CC5)C4)cc3)n2n1` [Example 5, N-(5-(4-((3-(cyclopropylsulfonyl)azetidin-1-yl)methyl)phenyl)-[1,2,4]triazolo[1,5-a]pyridin-2-yl]isobutyramide], the IC50 was over 50 nM at JAK2 (Table 1) and 20 to 50 nM at JAK1 (Table 1).

With `O=C(Nc1nc2c(-c3ccc(CN4CC(S(=O)(=O)C5CC5)C4)cc3)cccn2n1)C1CC1` [Example 10, N-(8-(4-((3-(cyclopropylsulfonyl)azetidin-1-yl)methyl)phenyl)-[1,2,4]triazolo[1,5-a]pyridin-2-yl]cyclopropanecarboxamide], the IC50 on JAK3 (Table 1), at JAK2 (Table 1) and on JAK1 (Table 1) was over 50 nM throughout.

In the case of `CCS(=O)(=O)C1CN(Cc2ccc(-c3cccc4nc(NC(=O)C(C)C)nn34)cc2)C1` [Example 6, N-(5-(4-((3-(ethylsulfonyl)azetidin-1-yl)methyl)phenyl)-[1,2,4]triazolo[1,5-a]pyridin-2-yl]isobutyramide], the IC50 at JAK3 (Table 1), on JAK2 (Table 1) and on JAK1 (Table 1) was over 50 nM each time.

Consider `O=S1(=O)CCN(Cc2ccc(-c3ncnc4[nH]ccc34)cc2)CC1` [Example 19, 4-(4-(7H-pyrrolo[2,3-d]pyrimidin-4-yl)benzyl)thiomorpholine 1,1-dioxide], for which the IC50 on JAK3 (Table 1) is over 50 nM; at JAK2 (Table 1), over 50 nM; at JAK1 (Table 1), under 20 nM.

`CS(=O)(=O)C1CN(Cc2c(F)cc(-c3cccc4nc(NC(=O)C5CC5)nn34)cc2F)C1` [Example 3, N-(5-(3,5-difluoro-4-((3-(methylsulfonyl)azetidin-1-yl)methyl)phenyl)-[1,2,4]triazolo[1,5-a]pyridin-2-yl]cyclopropanecarboxamide]: the IC50 on JAK3 (Table 1) was over 50 nM; at JAK2 (Table 1), over 50 nM; on JAK1 (Table 1), 20 to 50 nM.

Turning to `CS(=O)(=O)C1CN(Cc2ccc(-c3cccc4nc(N)nn34)cc2)C1` [Example 8, 5-(4-((3-(methylsulfonyl)azetidin-1-yl)methyl)phenyl)-[1,2,4]triazolo[1,5-a]pyridin-2-ylamine], the results for the 50% inhibitory concentration (IC50) on JAK3 (Table 1), at JAK2 (Table 1) and at JAK1 (Table 1) were 20 to 50 nM, over 50 nM and 20 to 50 nM, respectively.

Regarding `CCS(=O)(=O)C1CN(Cc2ccc(-c3cccn4nc(N)nc34)cc2)C1` [Example 18, 8-(4-((3-(ethylsulfonyl)azetidin-1-yl)methyl)phenyl)-[1,2,4]triazolo[1,5-a]pyridin-2-ylamine], the IC50 at JAK3 (Table 1), at JAK2 (Table 1) and at JAK1 (Table 1) was over 50 nM each time.

Turning to `CC(C)C(=O)Nc1nc2c(-c3ccc(CN4CC(S(=O)(=O)C5CC5)C4)cc3)cccn2n1` [Example 13, N-(8-(4-((3-(cyclopropylsulfonyl)azetidin-1-yl)methyl)phenyl)-[1,2,4]triazolo[1,5-a]pyridin-2-yl]isobutyramide], the IC50 on JAK3 (Table 1) was over 50 nM; on JAK2 (Table 1), over 50 nM; on JAK1 (Table 1), 20 to 50 nM.

As to `CS(=O)(=O)C1CN(Cc2ccc(-c3cccc4nc(NC(=O)C5CC5)nn34)cc2F)C1` [Example 2, N-(5-(3-fluoro-4-((3-(methylsulfonyl)azetidin-1-yl)methyl)phenyl)-[1,2,4]triazolo[1,5-a]pyridin-2-yl]cyclopropanecarboxamide], the IC50 at JAK1 (Table 1) was in the range of 20 to 50 nM.

On to `CCS(=O)(=O)C1CN(Cc2ccc(-c3cccc4nc(NC(=O)C5CC5)nn34)cc2)C1` [Example 7, N-(5-(4-((3-(ethylsulfonyl)azetidin-1-yl)methyl)phenyl)-[1,2,4]triazolo[1,5-a]pyridin-2-yl]cyclopropanecarboxamide], for which the IC50 on JAK2 (Table 1) was over 50 nM; at JAK1 (Table 1), 20 to 50 nM.

Regarding `CS(=O)(=O)C1CN(Cc2ccc(-c3cccn4nc(N)nc34)cc2)C1` [Example 17, 8-(4-((3-(methylsulfonyl)azetidin-1-yl)methyl)phenyl)-[1,2,4]triazolo[1,5-a]pyridin-2-ylamine], the results for the IC50 on JAK3 (Table 1), on JAK2 (Table 1) and on JAK1 (Table 1) were 20 to 50 nM, over 50 nM and 20 to 50 nM, respectively.

Take `CCS(=O)(=O)C1CN(Cc2ccc(-c3cccn4nc(NC(=O)C(C)C)nc34)cc2)C1` [Example 14, N-(8-(4-((3-(ethylsulfonyl)azetidin-1-yl)methyl)phenyl)-[1,2,4]triazolo[1,5-a]pyridin-2-yl]isobutyramide]: the results for the IC50 on JAK3 (Table 1), at JAK2 (Table 1) and at JAK1 (Table 1) were over 50 nM, over 50 nM and 20 to 50 nM, respectively.

Regarding `CS(=O)(=O)C1CN(Cc2ccc(-c3cccn4nc(NC(=O)C5CC5)nc34)cc2)C1` [Example 9, N-(8-(4-((3-(methylsulfonyl)azetidin-1-yl)methyl)phenyl)-[1,2,4]triazolo[1,5-a]pyridin-2-yl]cyclopropanecarboxamide], the concentration for half-maximal inhibition (IC50) at JAK3 (Table 1) was over 50 nM; at JAK2 (Table 1) it was over 50 nM; on JAK1 (Table 1) it was 20 to 50 nM.

Take `CS(=O)(=O)C1CN(Cc2ccc(-c3cccc4nc(NC(=O)C5CC5)nn34)cc2)C1` [Example 1, N-(5-(4-((3-(methylsulfonyl)azetidin-1-yl)methyl)phenyl)-[1,2,4]triazolo[1,5-a]pyridin-2-yl]cyclopropanecarboxamide]: the IC50 at JAK3 (Table 1) is over 50 nM; on JAK3 (setting [1]), 2430 nM; on JAK2 (Table 1) it was over 50 nM; at JAK2 (setting [1]) it was 498 nM; on JAK1 (Table 1), 20 to 50 nM; at JAK1 (setting [1]), 48 nM. Moreover, the “inhibitory activity against JAK1 relative to JAK2 (selectivity)” value against JAK1 (JAK1 versus JAK2, from Table 2) is 10 times.

Turning to `CC(C)C(=O)Nc1nc2c(-c3ccc(CN4CC(S(C)(=O)=O)C4)cc3)cccn2n1` [Example 12], the IC50 on JAK3 (Table 1) was over 50 nM; at JAK2 (Table 1) it was over 50 nM; at JAK1 (Table 1) it was 20 to 50 nM.

As for `CS(=O)(=O)C1CN(Cc2c(F)cc(-c3cccn4nc(NC(=O)C5CC5)nc34)cc2F)C1` [Example 16, N-(8-(3,5-difluoro-4-((3-(methylsulfonyl)azetidin-1-yl)methyl)phenyl)-[1,2,4]triazolo[1,5-a]pyridin-2-yl]cyclopropanecarboxamide], the IC50 on JAK3 (Table 1), at JAK2 (Table 1) and on JAK1 (Table 1) was over 50 nM each time.

As for `CS(=O)(=O)C1CN(Cc2ccc(-c3cccn4nc(NC(=O)C5CC5)nc34)cc2F)C1` [Example 15, N-(8-(3-fluoro-4-((3-(methylsulfonyl)azetidin-1-yl)methyl)phenyl)-[1,2,4]triazolo[1,5-a]pyridin-2-yl]cyclopropanecarboxamide], at JAK1 (Table 1), the IC50 lay in the range of 20 to 50 nM.
